The source of these data is patent publication US8242113B2, “Oxazolidinone derivatives with cyclic amidoxime or cyclic amidrazone pharmaceutical compositions thereof” (Legochem Biosciences, Inc., priority 2008, dated 2012).

A short description of series [1]: Cytotoxicity measurement by MTT assay. Format: cell-based. The settings on record: Chinese hamster. The text has this: The MTT assay is a […], colorimetric assay for mammalian cell survival and cell proliferation. It depends on the reduction of tetrazolium salt MTT by the mito-chondrial succinate dehrogenase of viable cells to form a blue formazan product. The assay measures cell respiration, and the amount of formazan product to the number of living cells present in culture. In this test, Chinese hamster ovary cells (CHO-K1) were purchased from ATCC (USA). Subcultured CHO cells were detached from the culture flask by treating with trypsin-EDTA solution, and seeded on a 96-well microplate, with 5000 cells per each well. After culturing for 24 hours in a 37° C., 5% CO2 incubator, the cells were treated with the oxazolidinone derivatives according to the present invention synthesized in the above examples, at 7 different concentrations. After further culturing for 48 hours in a 37° C., 5% CO2 incubator, 15 uL of […] MTT solution was added to each well. The cells were further incubated in the 37° C., 5% CO2 incubator for about 2 hours. Then, the culture medium was discarded and 100 uL of DMSO solution was added to each well. After agitating the microplate for 30 minutes, absorbance was measured at 550 nm using Spectramax plus 190 plate reader (Molecular Devices, USA). The absorbance decrease of the compound-treated groups compared to the non-treated control group is an indication of the decrease of surviving cells, which enables the measurement of the cytotoxicity of the compounds. The CC50 value, i.e., the concentration at which the cell proliferation is reduced to 50%, of the compounds according to the present invention was computed using the GraFit statistical analysis program (version 5.0.12) purchased from Erithacus Software after calculating the percentages of the absorbance at various concentrations as compared to the control group.

Series [2] has as its target T1, monoamine oxidase A (MAO A) (Homo sapiens, UniProt P21397).
T1 construct: purchased Sigma-Aldrich (USA)
T1 sequence (P21397 1-527): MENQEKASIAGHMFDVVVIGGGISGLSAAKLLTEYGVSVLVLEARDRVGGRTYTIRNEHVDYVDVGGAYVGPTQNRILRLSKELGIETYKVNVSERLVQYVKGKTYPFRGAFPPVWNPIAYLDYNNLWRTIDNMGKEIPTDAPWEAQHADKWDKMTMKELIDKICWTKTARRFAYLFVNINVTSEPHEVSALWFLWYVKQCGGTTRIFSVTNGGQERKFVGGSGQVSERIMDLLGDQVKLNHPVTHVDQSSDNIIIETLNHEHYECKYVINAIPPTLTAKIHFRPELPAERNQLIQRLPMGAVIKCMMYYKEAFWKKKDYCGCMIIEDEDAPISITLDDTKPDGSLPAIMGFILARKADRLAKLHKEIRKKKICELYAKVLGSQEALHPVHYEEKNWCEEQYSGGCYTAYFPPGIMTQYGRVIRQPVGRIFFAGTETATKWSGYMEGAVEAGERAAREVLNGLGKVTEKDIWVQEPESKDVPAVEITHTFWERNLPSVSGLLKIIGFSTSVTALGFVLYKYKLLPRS
Description: MAO inhibition (MAO-GLO assay). Format: biochemical. The following applies: MAO-GLO kit, compounds at 3.9-500 uM; read-out: MAOA. The protocol:
(§1) The oxazolidinone derivatives according to the present invention synthesized in the examples were tested for inhibition of monoamine oxidase A (MAO A) and monoamine oxidase B (MAO B). MAO-GLO assay kit was purchased from Promega (USA) and MAO A and MAO B enzymes were purchased from Sigma-Aldrich (USA). From the aldehyde product resulting from the action of the MAO enzyme on the amine group of the substrate, luciferin methyl ester is produced. The luciferin detection reagent is then added to inactivate the MAO enzymes. The esterase and the luciferase included in the reagent oxidize luciferin, thereby emitting light. The light emission is detected to measure the activity of MAO. The light emission was detected using LEADseeker (Amershan Bioscience, Sweden). MAO activity was measured in the presence of the compounds according to the present invention at 3.9-500 uM and compared with the non-treated control group. Linezolid was used as a comparison compound. For the measurement of the MAO inhibition activity of the compounds represented by Chemical Formula 1, the IC50 value, i.e., the concentration of the compounds at which the enzymatic activity is inhibited by 50% (This value is related with the inhibition constant Ki), can be determined. The concentration of the inhibitor at which the rate of hydrolysis of the substrate is reduced to 50% (i.e., the IC50 value) can be determined from a log plot of the relative rate of hydrolysis (as compared to the non-inhibited control group) versus the concentration of the compounds of Chemical Formula 1.
(§2) The MAO inhibition effect of the compounds of Chemical Formula 1 was measured by determining the inhibition constant Ki. Ki=IC50/{1+(┌S┐/Km)} Equation 1
(§3) In Equation 1, Km is the Michaelis-Menten constant, i.e., the concentration of the substrate at which the rate of enzymatic reaction is half of the maximum, and IC50 is the concentration of the inhibitor at which the rate of the hydrolysis of the substrate is reduced by 50%. The IC50 value was measured by plotting a log plot of the relative rate of hydrolysis (as compared to the non-inhibited control group) versus the concentration of the compounds of Chemical Formula 1. GraFit statistical analysis program (version 5.0.12) purchased from Erithacus Software was used.

Series [3] concerns the target T2, monoamine oxidase B (MAO B) (Homo sapiens, UniProt P27338).
T2 construct: purchased Sigma-Aldrich (USA)
T2 sequence (P27338 1-520): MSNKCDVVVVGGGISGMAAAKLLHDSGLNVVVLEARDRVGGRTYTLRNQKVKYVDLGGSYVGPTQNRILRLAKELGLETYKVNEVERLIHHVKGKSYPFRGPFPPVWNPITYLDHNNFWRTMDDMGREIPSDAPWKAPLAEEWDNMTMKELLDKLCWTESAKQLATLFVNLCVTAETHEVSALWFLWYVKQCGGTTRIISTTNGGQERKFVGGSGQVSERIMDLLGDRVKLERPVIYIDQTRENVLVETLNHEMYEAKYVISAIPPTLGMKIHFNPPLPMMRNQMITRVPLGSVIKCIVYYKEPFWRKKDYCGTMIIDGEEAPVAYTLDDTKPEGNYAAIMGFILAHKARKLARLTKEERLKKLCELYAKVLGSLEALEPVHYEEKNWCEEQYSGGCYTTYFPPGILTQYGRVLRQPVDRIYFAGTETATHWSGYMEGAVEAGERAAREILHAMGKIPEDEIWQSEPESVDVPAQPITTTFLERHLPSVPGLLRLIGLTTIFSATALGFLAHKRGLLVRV
Put plainly: MAO inhibition (MAO-GLO assay). The settings on record: MAO-GLO kit, compounds at 3.9-500 uM; read-out: MAOB. Format: biochemical. The protocol: as §1, §2, §3

Series [4] deals with methicillin-resistant Staphylococcus aureus (MRSA). Put plainly: In vitro antibacterial activity, broth microdilution (MIC90). The following applies: read-out: Antibacterial activity MIC90, MRSA.
Description: (§4) MIC90 measurement was made according to the broth microdilution method based on the CLSI document [Clinical and Laboratory Standards Institute Document.
(§5) The test compounds in DMSO solution were further diluted 20-fold with sterile distilled water.
Series [5] concerns linezolid- and vancomycin-resistant Enterococcus faecalis (LVRE). Described as above. The settings on record: read-out: Antibacterial activity MIC90, LVRE.
Description: as §4, §5
Series [6] in a line: Measurement of solubility in water by 1H NMR. Format: physicochemical. The following applies: for solubility at 30 min: water, thermodynamic from solid. The protocol: Water solubilities of methanesulfonates (MSA) of representative compounds among the oxazolidinone derivatives of Chemical Formula 1 were measured.
Solubility measurement was done by ^1H NMR according to the following method. First, a methanesulfonate (100 mg) of the compound was added to D2O (0.5 mL). After preparing a saturated solution by vigorous shaking for 30 minutes, the solution was filtered and 0.3 mL is taken therefrom. A reference compound solution (0.3 mL) (In this test example, DMSO diluted with D2O was used.) with an exactly known concentration was added thereto. From the ^1H NMR spectrum of the solution, the integral ratio of the sample peak to the reference (DMSO) peak was calculated. Since the concentration of the reference solution is known, the mols of the sample can be calculated from the integral ratio. Then, the solubility of the sample was calculated.

pIC50: −log10 of the molar value. ≈ marks a conversion by molar mass, not a printed value. Where two headings read alike, the source gives them in different places.

For `COC(=S)NC[C@H]1CN(c2ccc(N3C=NOCC3)cc2)C(=O)O1` [Compound 102], in series [1], the CC50 (in general, the concentration giving 50% cytotoxicity) at 48 h was over 130 µM. The results for the pIC50 in series [2] and in series [3] were 4.05 and 4.08, respectively. Further, the MIC90 (as a rule, an inhibitory concentration at the 90% level, which refers to growth in some studies and to a panel of isolates in others) in series [4] was found to be 0.25 µg/mL (≈ 0.713 µM). Besides, the MIC in series [5] was 4 µg/mL (≈ 11.4 µM).

On to `CN1CCN(c2ccc(N3C[C@H](Cn4ccnn4)OC3=O)cc2F)C=N1` [Compound 83], for which the solubility (in general, the dissolved amount per volume that the medium holds) at 30 min in series [6] turned out to be 117 mg/mL (≈ 326000 µM). In addition, the CC50 at 48 h in series [1] is over 130 µM. Besides, the pIC50 in series [2] was 4.72; in series [3] it was 3.68. The MIC90 in series [4] was 1 µg/mL (≈ 2.78 µM). Also, in series [5], the MIC was determined as 16 µg/mL (≈ 44.5 µM).

Molecule `COC(=S)NC[C@H]1CN(c2ccc(N3C=NN(C=O)CC3)c(F)c2)C(=O)O1` [Compound 53] displayed a CC50 at 48 h in series [1] of over 130 µM. The pIC50 is 4.62 in series [2] and 4.24 in series [3]. For the same molecule, the MIC90 in series [4] is 0.5 µg/mL (≈ 1.26 µM). Also, the MIC in series [5] was 8 µg/mL (≈ 20.2 µM).

For `Cn1nnc(-c2ccc(-c3ccc(N4C[C@H](CO)OC4=O)cc3F)cn2)n1` [TR-700, reference compound], it took 28 µM to reach half-maximal cytotoxicity in series [1] (CC50 at 48 h). The pIC50 in series [2] was over 5.70; in series [3], 5.21.

Take `CN1CCN(c2ccc(N3C[C@H](CO)OC3=O)cc2F)C=N1` [Compound 94]: the solubility at 30 min in series [6] was 136 mg/mL (≈ 441000 µM). The molecule further showed a CC50 at 48 h in series [1] of over 130 µM. For the same molecule, the values for the pIC50 in series [2] and in series [3] were 5.40 and 3.75, respectively. In addition, the MIC90 in series [4] stood at 1 µg/mL (≈ 3.24 µM). In series [5], the MIC amounted to 64 µg/mL (≈ 208 µM).

With `CN1CCN(c2ccc(N3C[C@H](CNc4ccon4)OC3=O)cc2F)C=N1` [Compound 89], the “% solubility in water” value in series [6] (methanesulfonate (MSA) of the compound, saturated solution in D2O, linezolid as reference) is “(13%)”. Further, the solubility at 30 min in series [6] (read-out: Solubility of methanesulfonate in water) was determined as 129 mg/mL (≈ 345000 µM). Also, the CC50 at 48 h in series [1] (CHO-K1 cells, 48 hours treatment, MTT, read-out: CC50) was over 130 µM. The values for the pIC50 in series [2] and in series [3] were 5.28 and under 3.60, respectively. Also, the MIC90 in series [4] was 0.5 µg/mL (≈ 1.34 µM). Further, the MIC in series [5] was 8 µg/mL (≈ 21.4 µM).

`CC(=O)NC[C@H]1CN(c2ccc(N3CCOCC3)c(F)c2)C(=O)O1` [Linezolid, linezolid, reference compound]: the CC50 at 48 h in series [1] was over 130 µM. The pIC50 in series [2] is 5.10; in series [3], 5.37. The MIC90 in series [4] is 2 µg/mL (≈ 5.93 µM); in series [5], 32 µg/mL (≈ 94.9 µM).
